This experiment concerns the target T1, 3-dehydroquinate dehydratase (Mycobacterium tuberculosis, UniProt P9WPX7).
T1 sequence (P9WPX7 whole entry): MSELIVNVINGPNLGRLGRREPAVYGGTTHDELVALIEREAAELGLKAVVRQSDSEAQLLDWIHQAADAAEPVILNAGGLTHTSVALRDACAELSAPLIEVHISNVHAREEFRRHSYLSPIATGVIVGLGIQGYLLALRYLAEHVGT
Put plainly: Inhibition of Mycobacterium tuberculosis type II dehydroquinase at 25 degree C pH 8.2.

Molecules are shown by their SMILES.

As for `O=C(O)[C@]1(O)C=C(c2cc(F)cc(F)c2)[C@@H](O)[C@H](O)C1`, the Ki amounted to 2440 nM. As for `O=C(O)[C@]1(O)C=C(c2ccsc2)[C@@H](O)[C@H](O)C1`, the Ki came out at 590 nM. Regarding `O=C(O)[C@]1(O)C=C(c2cccc([N+](=O)[O-])c2)[C@@H](O)[C@H](O)C1`, the affinity corresponds to a Ki of 54 nM. `O=C(O)[C@]1(O)C=C(c2cccc(O)c2)[C@@H](O)[C@H](O)C1` returned an inhibition constant (Ki) of 95000 nM. In turn, `O=C(O)[C@]1(O)C=C(c2cccc(C(F)(F)F)c2)[C@@H](O)[C@H](O)C1` had a Ki of 2120 nM. As to `O=C(O)c1cccc(C2=C[C@@](O)(C(=O)O)C[C@@H](O)[C@@H]2O)c1`, the Ki was 150000 nM. `O=C(O)[C@]1(O)C=C(c2ccccc2)[C@@H](O)[C@H](O)C1` had a Ki of 1500 nM. Take `O=C(O)[C@]1(O)C=C(c2ccc(F)cc2)[C@@H](O)[C@H](O)C1`: the affinity corresponds to a Ki of 1800 nM.

Regarding `O=C(O)[C@]1(O)C=C(c2ccc(C(F)(F)F)cc2)[C@@H](O)[C@H](O)C1`, the Ki was found to be 17000 nM. Compound `O=C(O)[C@]1(O)C=C(c2cccc(F)c2)[C@@H](O)[C@H](O)C1` gave a Ki of 1500 nM. In the case of `O=C(O)[C@]1(O)C/C(=N\O)[C@@H](O)[C@H](O)C1` it was 20000 nM.

In turn, `O=C(O)[C@]1(O)C=C(F)[C@@H](O)[C@H](O)C1` came in with a Ki of 10000 nM. `O=C(O)[C@]1(O)C=C(c2ccoc2)[C@@H](O)[C@H](O)C1` registered an inhibitory constant (Ki) of 830 nM. As to `O=C(O)[C@]1(O)C=C(c2cccnc2)[C@@H](O)[C@H](O)C1`, the Ki was 45000 nM.

Values taken from ChEMBL document CHEMBL1140333, “Structure-based design, synthesis, and biological evaluation of inhibitors of Mycobacterium tuberculosis type II dehydroquinase” (J Med Chem, 2005).
